Measured values: patent publication US7132506B2, “Peptide having osteogenetic activity and osteogenetic accelerator containing the same” (Kyocera Corporation, priority 2001, dated 2006)

System: C3H10T1/2 cell strain
Assay: Induction of alkali phosphatase activity in C3H10T1/2 cell strain
Format: cell-based, mouse
Conditions: 200 μg peptide solidified per well by air drying; three days of incubation; blank wells 0.24±0.11
Description: Undifferentiated mouse mesenchymal cell strain C3H10T1/2 (purchased from Dai-Nippon Seiyaku KK, Japan) was dispersed in Eagle's MEM medium containing 10% of fetal bovine serum in a cell concentration of 3.75×10^4 cells/mL, and thus a cell culture liquid was prepared.
Three days after the start of incubation, a culture supernatant was removed, and the wells were washed once with phosphate buffer (PBS: 10 mM, containing 0.15 M of common salt, pH 7.4). To each well of the 96-hole plates, 100 μL of Tris buffer (20 mM, pH 8.5) containing 1% Triton X-100 was added and allowed to stand for 30 minutes to dissolve cells. With respect to 100 μL of the resulting cell solution, 100 μL of Tris buffer (1.5 M, containing 1 mM of ZnCl2 and 1 mM of MgCl2, pH 8.5) containing 7.5 mM of p-nitrophenyl phosphate (purchased from Wako Junyaku Kogyo, Japan) were added. Increase in absorbency at 405 nm was measured to determine the alkaline phosphatase activity in the cell solution. The concentration of protein in the cell solution was also determined using a BCA assay kit (produced by Pierce).

Substance	alkaline phosphatase activity
Example 2: Peptide having amino acid sequence SEQ ID NO:4 with an amino group at the N terminal and an amide group at the C terminal (H-NSVNSKIPKACSVPTELSAISTLYL-NH2)	1.5±0.6 nmol/min·mg-protein
Example 3: Peptide having amino acid sequence SEQ ID NO:5 with an amino group at the N terminal and an amide group at the C terminal (H-NSVNSKIPKASSVPTELSAISTLYL-NH2)	1.5±0.8 nmol/min·mg-protein
Example 1: Peptide having amino acid sequence SEQ ID NO:4 with an amino group at the N terminal and a carboxyl group at the C terminal (NSVNSKIPKACSVPTELSAISTLYL)	1.3±0.9 nmol/min·mg-protein
Example 4: Peptide having amino acid sequence SEQ ID NO:6 with an amino group at the N terminal and an amide group at the C terminal (H-KIPKASSVPTELSAISTLYL-NH2)	1.7±0.1 nmol/min·mg-protein
